# In ChEMBL document CHEMBL2074390, “Vectorial transport of bile salts across MDCK cells expressing both rat Na+-taurocholate cotransporting polypeptide and rat bile salt export pump” (Am J Physiol Gastrointest Liver Physiol, 2004):
# Tested on: MDCK
# Description: TP_TRANSPORTER: transepithelial transport (basal to apical) in Ntcp/Bsep double transfected MDCK cell
smiles,measurement,value
C[C@H](CCC(=O)NCCS(=O)(=O)O)[C@H]1CC[C@H]2[C@@H]3[C@H](O)C[C@@H]4C[C@H](O)CC[C@]4(C)[C@H]3C[C@H](O)[C@]12C,Km,22.2 µM
